Read-outs that look alike come from different tables or passages of the source. Residues, ends and D or L forms follow the SMILES beside them. *: point of attachment. AMC = Cc1cc(=O)oc2cc(N*)ccc12; Cbz = O=C(OCc1ccccc1)*
Tests used:
butelase 1 [1] = assay: Michaelis-Menten kinetics of butelase 1 as a peptide cyclase; type: biochemical, Clitoria ternatea
butelase 1 [2] = assay: Hydrolysis of Z-AAN-AMC by butelase 1 (asparaginyl endopeptidase activity); type: biochemical, Clitoria ternatea; conditions: 50 mM Z-AAN-AMC, 30 h
jack bean legumain = target: T1, jack bean legumain (Canavalia ensiformis, UniProt P49046); assay: Hydrolysis of Z-AAN-AMC by jack bean legumain (positive control); type: biochemical; conditions: same experimental conditions, 30 h
T1 construct: purchased Takara Bio (Japan)
T1 sequence (P49046 36-475): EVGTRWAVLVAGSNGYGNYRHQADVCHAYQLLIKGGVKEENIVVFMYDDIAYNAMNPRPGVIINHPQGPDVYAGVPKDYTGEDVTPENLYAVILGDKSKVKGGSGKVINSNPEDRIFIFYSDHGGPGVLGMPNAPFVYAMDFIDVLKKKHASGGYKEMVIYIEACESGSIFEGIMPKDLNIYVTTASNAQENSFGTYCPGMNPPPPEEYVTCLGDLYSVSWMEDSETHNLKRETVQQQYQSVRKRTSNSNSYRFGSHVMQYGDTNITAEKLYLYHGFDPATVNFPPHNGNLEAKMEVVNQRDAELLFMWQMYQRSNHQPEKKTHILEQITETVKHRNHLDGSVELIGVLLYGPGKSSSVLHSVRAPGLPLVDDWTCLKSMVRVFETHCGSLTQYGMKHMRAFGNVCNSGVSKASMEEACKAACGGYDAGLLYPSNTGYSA

butelase 1 [3] = assay: In vitro cyclization of peptide/protein substrates by butelase 1 (HPLC/MS yield); type: biochemical, Clitoria ternatea
[4] = Solubility of butelase 1 in water
[5] = Storage stability of purified butelase 1; conditions: 30 days at 4° C.
[6] = butelase 1 cyclization, 37° C., 0.125 μM enzyme, 12 min (SA-kB1-NHV: 5 nM, 6 min)

Apelin
Km (butelase 1 [1]): 6.7 ± 1.4 µM | kcat (butelase 1 [1]): 5.78 ± 0.25 s⁻¹

Neuromedin ∪
Km (butelase 1 [1]): 8.7 ± 2.1 µM | kcat (butelase 1 [1]): 5.78 ± 0.36 s⁻¹

Cc1cc(=O)oc2cc(NC(=O)[C@H](CC(N)=O)NC(=O)[C@H](C)NC(=O)[C@H](C)NC(=O)OCc3ccccc3)ccc12 [Z-AAN-AMC, N-carbobenzyloxy-Ala-Ala-Asn-7-amido-4-methylcoumarin] (Cbz-Ala-Ala-Asn-{AMC})
Hydrolyzed product formed (RP-HPLC) (butelase 1 [2]): < 3% | Hydrolysis of Z-AAN-AMC (jack bean legumain): completely hydrolyzed

SFTI-NHV: SEQ ID NO:135, GRCTKSIPPICFPNHV; 16-residue linear substrate
Cyclization efficiency, SFTI-NHV compared with SFTI-DHV (butelase 1 [3]): significantly more efficient | Km (butelase 1 [1]; [6]): 51 ± 4 µM | kcat (butelase 1 [1]; [6]): 0.6 ± 0.02 s⁻¹ | kcat (butelase 1 [1]; butelase 1 cyclization, 37° C., 0.125 μM enzyme, 12 min (SA-kB1-NHV: 5 nM, 6 min), listed as SFT1-NHV): 0.6 ± 0.02 s⁻¹

B1: butelase 1: Asx-specific peptide ligase/cyclase isolated from Clitoria ternatea, amino acid sequence SEQ ID NO:1 (protein, listed as Clitoria ternatea)
chain: VEGTRWAVLVAGSKGYVNYRHQADVCHAYQILKKGGLKDENIIVFMYDDIAYNESNPHPGVIINHPYGSDVYKGVPKDYVGEDINPPNFYAVLLANKSALTGTGSGKVLDSGPNDHVFIYYTDHGGAGVLGMPSKPYIAASDLNDVLKKKHASGTYKSIVFYVESCESGSMFDGLLPEDHNIYVMGASDTGESSWVTYCPLQHPSPPPEYDVCVGDLFSVAWLEDCDVHNLQTETFQQQYEVVKNKTIVALIEDGTHVVQYGDVGLSKQTLFVYMGTDPANDNNTFTDKNSLGTPRKAVSQRDADLIHYWEKYRRAPEGSSRKAEAKKQLREVMAHRMHIDN
Catalytic rate relative to sortase A (butelase 1 [3]; GFP as a model protein): ~10,000 | Solubility in water (concentration achieved) [4]: 10000 µg/mL | Catalytic activities (butelase 1 [1]; highest value stated in the summary): ≤ 542,000 M^−s^−1 | Stability of enzyme activity [5]: minimal loss of activity
